Data taken from ChEMBL document CHEMBL4177619, “Novel potentially antifungal hybrids of 5-flucytosine and fluconazole: Design, synthesis and bioactive evaluation” (2017).
In brackets after ≈: the same amount, converted by molar mass. Activity calls are given as the source filed them. No cut-off for these calls is given here.

The compounds below were run on Candida parapsilosis (assay: Antifungal activity against Candida parapsilosis ATCC 22019 after 24 hrs by micro broth dilution method). Conditions: Lodderomyces parapsilosis, ATCC 22019, 24 h.
Assay type: functional

MIC80 [µM]	SMILES
1250 (≈ 508 µg/mL)	C=CCN(CC(O)(Cn1cncn1)c1ccc(F)cc1F)c1nc(=O)[nH]cc1F (stereo not drawn)
1260 (≈ 509 µg/mL)	C#CCN(CC(O)(Cn1cncn1)c1ccc(F)cc1F)c1nc(=O)[nH]cc1F (stereo not drawn)
530 (≈ 251 µg/mL)	O=c1nc(N(Cc2ccc(F)cc2)CC(O)(Cn2cncn2)c2ccc(F)cc2F)c(F)c[nH]1 (stereo not drawn)
280 (≈ 126 µg/mL)	CCCCCCN(CC(O)(Cn1cncn1)c1ccc(F)cc1F)c1nc(=O)[nH]cc1F (stereo not drawn)
300 (≈ 127 µg/mL)	CCCCN(CC(O)(Cn1cncn1)c1ccc(F)cc1F)c1nc(=O)[nH]cc1F (stereo not drawn)
620 (≈ 253 µg/mL)	CCCN(CC(O)(Cn1cncn1)c1ccc(F)cc1F)c1nc(=O)[nH]cc1F (stereo not drawn)

The next lines start with the compound.

SMILES	MIC80 [µM]
O=c1nc(N(Cc2ccccc2Cl)CC(O)(Cn2cncn2)c2ccc(F)cc2F)c(F)c[nH]1 (stereo not drawn)	520 (≈ 255 µg/mL)
O=c1nc(NCC(O)(Cn2cncn2)c2ccc(F)cc2F)c(F)c[nH]1 (stereo not drawn)	170 (≈ 62.3 µg/mL)
O=c1nc(N(Cc2ccccc2F)CC(O)(Cn2cncn2)c2ccc(F)cc2F)c(F)c[nH]1 (stereo not drawn)	530 (≈ 251 µg/mL)
O=c1nc(N(Cc2cccc(Cl)c2)CC(O)(Cn2cncn2)c2ccc(F)cc2F)c(F)c[nH]1 (stereo not drawn)	260 (≈ 128 µg/mL)
O=c1nc(N(Cc2ccc(Cl)c(Cl)c2)CC(O)(Cn2cncn2)c2ccc(F)cc2F)c(F)c[nH]1 (stereo not drawn)	30 (≈ 15.8 µg/mL)

What follows are compounds tested on Candida albicans (assay: Induction of inner membrane permeabilization in Candida albicans assessed as propidium iodide uptake at 12 times MIC up to 105 mins by fluorescence assay). Conditions: not given.
Assay type: functional, organism-based

SMILES	Activity
O=c1nc(N(Cc2ccc(Cl)c(Cl)c2)CC(O)(Cn2cncn2)c2ccc(F)cc2F)c(F)c[nH]1 (stereo not drawn)	Active

These compounds were tested on Candida albicans (assay: Potency index, ratio of fluconazole MIC80 to compound MIC80 for Candida albicans). Conditions: not given.
Assay type: functional

SMILES	Ratio
O=c1nc(N(Cc2ccc(Cl)c(Cl)c2)CC(O)(Cn2cncn2)c2ccc(F)cc2F)c(F)c[nH]1 (stereo not drawn)	8

Each compound was assayed on Aspergillus fumigatus (assay: Antifungal activity against Aspergillus fumigatus after 24 hrs by micro broth dilution method). Conditions: not given.
Assay type: functional

MIC80 [µM]	SMILES
620 (≈ 252 µg/mL)	C=CCN(CC(O)(Cn1cncn1)c1ccc(F)cc1F)c1nc(=O)[nH]cc1F (stereo not drawn)
630 (≈ 255 µg/mL)	C#CCN(CC(O)(Cn1cncn1)c1ccc(F)cc1F)c1nc(=O)[nH]cc1F (stereo not drawn)
260 (≈ 123 µg/mL)	O=c1nc(N(Cc2ccc(F)cc2)CC(O)(Cn2cncn2)c2ccc(F)cc2F)c(F)c[nH]1 (stereo not drawn)
560 (≈ 252 µg/mL)	CCCCCCN(CC(O)(Cn1cncn1)c1ccc(F)cc1F)c1nc(=O)[nH]cc1F (stereo not drawn)
600 (≈ 253 µg/mL)	CCCCN(CC(O)(Cn1cncn1)c1ccc(F)cc1F)c1nc(=O)[nH]cc1F (stereo not drawn)
620 (≈ 253 µg/mL)	CCCN(CC(O)(Cn1cncn1)c1ccc(F)cc1F)c1nc(=O)[nH]cc1F (stereo not drawn)

More lines, now with the values behind:

SMILES	MIC80 [µM]
O=c1nc(N(Cc2ccccc2Cl)CC(O)(Cn2cncn2)c2ccc(F)cc2F)c(F)c[nH]1 (stereo not drawn)	260 (≈ 128 µg/mL)
O=c1nc(NCC(O)(Cn2cncn2)c2ccc(F)cc2F)c(F)c[nH]1 (stereo not drawn)	80 (≈ 29.3 µg/mL)
O=c1nc(N(Cc2ccccc2F)CC(O)(Cn2cncn2)c2ccc(F)cc2F)c(F)c[nH]1 (stereo not drawn)	530 (≈ 251 µg/mL)
O=c1nc(N(Cc2cccc(Cl)c2)CC(O)(Cn2cncn2)c2ccc(F)cc2F)c(F)c[nH]1 (stereo not drawn)	130 (≈ 63.8 µg/mL)
O=c1nc(N(Cc2ccc(Cl)c(Cl)c2)CC(O)(Cn2cncn2)c2ccc(F)cc2F)c(F)c[nH]1 (stereo not drawn)	30 (≈ 15.8 µg/mL)

The compounds below were run on Calf thymus DNA (assay: Binding affinity to calf thymus DNA assessed as hyperchromic effect up to 2 x 10^-5mol/L by UV-Visible spectrometric analysis). Conditions: Bos taurus.
Assay type: nucleic-acid assay

Activity	SMILES
Active	O=c1nc(N(Cc2ccc(Cl)c(Cl)c2)CC(O)(Cn2cncn2)c2ccc(F)cc2F)c(F)c[nH]1 (stereo not drawn)

These compounds were tested on Candida albicans (assay: Antifungal activity against Candida albicans after 24 hrs by micro broth dilution method). Conditions: not given.
Assay type: functional

MIC80 [µM]	SMILES
310 (≈ 126 µg/mL)	C=CCN(CC(O)(Cn1cncn1)c1ccc(F)cc1F)c1nc(=O)[nH]cc1F (stereo not drawn)
310 (≈ 125 µg/mL)	C#CCN(CC(O)(Cn1cncn1)c1ccc(F)cc1F)c1nc(=O)[nH]cc1F (stereo not drawn)
260 (≈ 123 µg/mL)	O=c1nc(N(Cc2ccc(F)cc2)CC(O)(Cn2cncn2)c2ccc(F)cc2F)c(F)c[nH]1 (stereo not drawn)
560 (≈ 252 µg/mL)	CCCCCCN(CC(O)(Cn1cncn1)c1ccc(F)cc1F)c1nc(=O)[nH]cc1F (stereo not drawn)
300 (≈ 127 µg/mL)	CCCCN(CC(O)(Cn1cncn1)c1ccc(F)cc1F)c1nc(=O)[nH]cc1F (stereo not drawn)
310 (≈ 127 µg/mL)	CCCN(CC(O)(Cn1cncn1)c1ccc(F)cc1F)c1nc(=O)[nH]cc1F (stereo not drawn)

The next lines start with the compound.

SMILES	MIC80 [µM]
O=c1nc(N(Cc2ccccc2Cl)CC(O)(Cn2cncn2)c2ccc(F)cc2F)c(F)c[nH]1 (stereo not drawn)	130 (≈ 63.8 µg/mL)
O=c1nc(NCC(O)(Cn2cncn2)c2ccc(F)cc2F)c(F)c[nH]1 (stereo not drawn)	170 (≈ 62.3 µg/mL)
O=c1nc(N(Cc2ccccc2F)CC(O)(Cn2cncn2)c2ccc(F)cc2F)c(F)c[nH]1 (stereo not drawn)	260 (≈ 123 µg/mL)
O=c1nc(N(Cc2cccc(Cl)c2)CC(O)(Cn2cncn2)c2ccc(F)cc2F)c(F)c[nH]1 (stereo not drawn)	130 (≈ 63.8 µg/mL)
O=c1nc(N(Cc2ccc(Cl)c(Cl)c2)CC(O)(Cn2cncn2)c2ccc(F)cc2F)c(F)c[nH]1 (stereo not drawn)	20 (≈ 10.5 µg/mL)

These compounds were tested on Calf thymus DNA (assay: Inhibition of neutral red binding to calf thymus DNA by UV-Visible spectrometric analysis). Conditions: Bos taurus.
Assay type: nucleic-acid assay

inhibition	SMILES
Dose-dependent effect	O=c1nc(N(Cc2ccc(Cl)c(Cl)c2)CC(O)(Cn2cncn2)c2ccc(F)cc2F)c(F)c[nH]1 (stereo not drawn)

What follows are compounds tested on Candida albicans (assay: Potency index, ratio of 5-fluorocytosine MIC80 to compound MIC80 for Candida albicans). Conditions: not given.
Assay type: functional

SMILES	Ratio
O=c1nc(N(Cc2ccc(Cl)c(Cl)c2)CC(O)(Cn2cncn2)c2ccc(F)cc2F)c(F)c[nH]1 (stereo not drawn)	8

The compounds below were run on Candida albicans (assay: Fungicidal activity against Candida albicans assessed as log reduction in fungal load at 4 time MIC up to 1 hr by time kill assay). Conditions: not given.
Assay type: functional

SMILES	Activity [log10CFU/ml]
O=c1nc(N(Cc2ccc(Cl)c(Cl)c2)CC(O)(Cn2cncn2)c2ccc(F)cc2F)c(F)c[nH]1 (stereo not drawn)	>3

These compounds were tested on Candida albicans (assay: Antifungal activity against Candida albicans ATCC 90023 after 24 hrs by micro broth dilution method). Conditions: ATCC 90023, 24 h.
Assay type: functional

MIC80 [µM]	SMILES
620 (≈ 252 µg/mL)	C=CCN(CC(O)(Cn1cncn1)c1ccc(F)cc1F)c1nc(=O)[nH]cc1F (stereo not drawn)
1260 (≈ 509 µg/mL)	C#CCN(CC(O)(Cn1cncn1)c1ccc(F)cc1F)c1nc(=O)[nH]cc1F (stereo not drawn)
530 (≈ 251 µg/mL)	O=c1nc(N(Cc2ccc(F)cc2)CC(O)(Cn2cncn2)c2ccc(F)cc2F)c(F)c[nH]1 (stereo not drawn)
560 (≈ 252 µg/mL)	CCCCCCN(CC(O)(Cn1cncn1)c1ccc(F)cc1F)c1nc(=O)[nH]cc1F (stereo not drawn)
300 (≈ 127 µg/mL)	CCCCN(CC(O)(Cn1cncn1)c1ccc(F)cc1F)c1nc(=O)[nH]cc1F (stereo not drawn)
310 (≈ 127 µg/mL)	CCCN(CC(O)(Cn1cncn1)c1ccc(F)cc1F)c1nc(=O)[nH]cc1F (stereo not drawn)

Second part, the compound before the results:

SMILES	MIC80 [µM]
O=c1nc(N(Cc2ccccc2Cl)CC(O)(Cn2cncn2)c2ccc(F)cc2F)c(F)c[nH]1 (stereo not drawn)	260 (≈ 128 µg/mL)
O=c1nc(NCC(O)(Cn2cncn2)c2ccc(F)cc2F)c(F)c[nH]1 (stereo not drawn)	170 (≈ 62.3 µg/mL)
O=c1nc(N(Cc2ccccc2F)CC(O)(Cn2cncn2)c2ccc(F)cc2F)c(F)c[nH]1 (stereo not drawn)	530 (≈ 251 µg/mL)
O=c1nc(N(Cc2cccc(Cl)c2)CC(O)(Cn2cncn2)c2ccc(F)cc2F)c(F)c[nH]1 (stereo not drawn)	130 (≈ 63.8 µg/mL)
O=c1nc(N(Cc2ccc(Cl)c(Cl)c2)CC(O)(Cn2cncn2)c2ccc(F)cc2F)c(F)c[nH]1 (stereo not drawn)	8 (≈ 4.2 µg/mL)

The compounds below were run on Calf thymus DNA (assay: Binding affinity to calf thymus DNA assessed as increase in maximum absorption of DNA by UV-Visible spectrometric analysis). Conditions: Bos taurus.
Assay type: nucleic-acid assay

Activity	K [×10³ L/mol]	SMILES
Dose-dependent effect	4.88	O=c1nc(N(Cc2ccc(Cl)c(Cl)c2)CC(O)(Cn2cncn2)c2ccc(F)cc2F)c(F)c[nH]1 (stereo not drawn)

These compounds were tested on Candida tropicalis (assay: Antifungal activity against Candida tropicalis after 24 hrs by micro broth dilution method). Conditions: not given.
Assay type: functional

MIC80 [µM]	SMILES
620 (≈ 252 µg/mL)	C=CCN(CC(O)(Cn1cncn1)c1ccc(F)cc1F)c1nc(=O)[nH]cc1F (stereo not drawn)
630 (≈ 255 µg/mL)	C#CCN(CC(O)(Cn1cncn1)c1ccc(F)cc1F)c1nc(=O)[nH]cc1F (stereo not drawn)
530 (≈ 251 µg/mL)	O=c1nc(N(Cc2ccc(F)cc2)CC(O)(Cn2cncn2)c2ccc(F)cc2F)c(F)c[nH]1 (stereo not drawn)
1130 (≈ 509 µg/mL)	CCCCCCN(CC(O)(Cn1cncn1)c1ccc(F)cc1F)c1nc(=O)[nH]cc1F (stereo not drawn)
600 (≈ 253 µg/mL)	CCCCN(CC(O)(Cn1cncn1)c1ccc(F)cc1F)c1nc(=O)[nH]cc1F (stereo not drawn)
620 (≈ 253 µg/mL)	CCCN(CC(O)(Cn1cncn1)c1ccc(F)cc1F)c1nc(=O)[nH]cc1F (stereo not drawn)

The remaining lines, values behind:

SMILES	MIC80 [µM]
O=c1nc(N(Cc2ccccc2Cl)CC(O)(Cn2cncn2)c2ccc(F)cc2F)c(F)c[nH]1 (stereo not drawn)	260 (≈ 128 µg/mL)
O=c1nc(NCC(O)(Cn2cncn2)c2ccc(F)cc2F)c(F)c[nH]1 (stereo not drawn)	40 (≈ 14.7 µg/mL)
O=c1nc(N(Cc2ccccc2F)CC(O)(Cn2cncn2)c2ccc(F)cc2F)c(F)c[nH]1 (stereo not drawn)	530 (≈ 251 µg/mL)
O=c1nc(N(Cc2cccc(Cl)c2)CC(O)(Cn2cncn2)c2ccc(F)cc2F)c(F)c[nH]1 (stereo not drawn)	520 (≈ 255 µg/mL)
O=c1nc(N(Cc2ccc(Cl)c(Cl)c2)CC(O)(Cn2cncn2)c2ccc(F)cc2F)c(F)c[nH]1 (stereo not drawn)	30 (≈ 15.8 µg/mL)
